US11554171B2, “Compounds and methods for the targeted degradation of bromodomain-containing proteins” (Arvinas Operations, Inc., priority 2015, dated 2023)

Tested on: c-myc in 22RV-1 cells
Experiment: Human c-myc ELISA assay
Format: cell-based
Details: Homo sapiens; for Emax: 22Rv1, 18 h, read-out: Degradation of BRD4: Maximum inhibition (%) c-Myc ELISA in 22RV1 cells; for DC50: 22Rv1, read-out: Degradation of BRD4: DC50 (uM) c-Myc ELISA in 22RV1 cells
Experimental: 22RV-1 cells are seeded at 30,000 cells/well at a volume of 75 μL/well in RPMI+10% FBS media in 96-well plates and grown overnight at 37 C. Cells are dosed with compounds at 4× concentration diluted in 0.4% DMSO; compounds are serially diluted 1:3 for 8-point dose curve. 25 ul of compounds is added to cells for a final concentration starting at 300 nM-0.3 nM or 1 uM-1 nM in 0.1% DMSO and incubated for 18 hrs. Media is aspirated, cells washed 1× with PBS and aspirated. Cells are lysed in 50 ul RIPA buffer (50 mM Tris pH8, 150 mM NaCl, 1% Tx-100, 0.1% SDS, 0.5% sodium deoxycholate) supplemented with protease and phosphatase inhibitors. Plates are incubated on ice for 15 minutes then centrifuged at 4 C for 10 min at 4000 rpm. Add 50 ul of cleared lysate from 96-well assay plate into 96-well c-myc ELISA plate (Novex, Life Technologies Catalog #KH02041). Reconstitute c-myc standard with standard diluent buffer; standard curve range is 333 pg/ml-0 pg/ml, diluted 1:2 for 8-point dose curve. The rest of the assay was performed following the protocol from the c-myc ELISA kit. Data is analyzed and plotted using GraphPad Prism software. Compounds described in this application were assayed and c-myc suppression potency is listed in the following Table (A: DC50<10 nM; B: DC50 10-100 nM; C: DC50: 100-1000 nM; D: DC50>1000 nM)

SMILES | DC50 [µM] | Emax [%]
Cc1ncsc1-c1ccc(CNC(=O)[C@@H]2C[C@@H](O)CN2C(=O)[C@H](c2cc(OCCN3CC[C@@H](NC(=O)C[C@@H]4N=C(c5ccc(Cl)cc5)c5c(sc(C)c5C)-n5c(C)nnc54)C3)no2)C(C)C)cc1 (single isomer, unassigned) [Example 311] | > 1 | 43.6
Cc1ncsc1-c1ccc(CNC(=O)[C@@H]2C[C@@H](O)CN2C(=O)[C@H](C(C)C)N2Cc3ccccc3C2=O)c(OCCOCCOCCOCCOCCNC(=O)C[C@@H]2N=C(c3ccc(Cl)cc3)c3c(sc(C)c3C)-n3c(C)nnc32)c1 [Example 2] | > 1 | 41
Cc1ncsc1-c1ccc(CNC(=O)[C@@H]2C[C@@H](O)CN2C(=O)[C@H](C(C)C)N2Cc3ccccc3C2=O)c(OCCOCCOCCOCCOCCOCCNC(=O)C[C@@H]2N=C(c3ccc(Cl)cc3)c3c(sc(C)c3C)-n3c(C)nnc32)c1 [Example 3] | 0.1 to 1 | 100
Cc1ncsc1-c1ccc(CNC(=O)[C@@H]2C[C@@H](O)CN2C(=O)[C@@H](NC(=O)COCCOCCOCCOCCOCCOCCNC(=O)C[C@@H]2N=C(c3ccc(Cl)cc3)c3c(sc(C)c3C)-n3c(C)nnc32)C(C)(C)C)cc1 [Example 4, (2S,4R)-1-[(2S)-2-(20-{2-[(9S)-7-(4-chlorophenyl)-4,5,13-trimethyl-3-thia-1,8,11,12-tetraazatricyclo[8.3.0.0^2,^6]trideca-2(6),4,7,10,12-pentaen-9-yl]acetamido}-3,6,9,12,15,18-hexaoxaicosanamido)-3,3-dimethylbutanoyl]-4-hydroxy-N-{[4-(4-methyl-1,3-thiazol-5-yl)phenyl]methyl}-pyrrolidine-2-carboxamide] | 0.1 to 1 | 62.2
Cc1ncsc1-c1ccc(CNC(=O)[C@@H]2C[C@@H](O)CN2C(=O)[C@H](C(C)C)N2Cc3ccccc3C2=O)c(OCCOCCOCCCOCCOCCNC(=O)C[C@@H]2N=C(c3ccc(Cl)cc3)c3c(sc(C)c3C)-n3c(C)nnc32)c1 [Example 5] | > 1 | 25
Cc1ncsc1-c1ccc(CNC(=O)[C@@H]2C[C@@H](O)CN2C(=O)[C@H](C(C)C)N2Cc3ccccc3C2=O)c(OCCOCCOCCCCOCCOCCNC(=O)C[C@@H]2N=C(c3ccc(Cl)cc3)c3c(sc(C)c3C)-n3c(C)nnc32)c1 [Example 6] | 0.1 to 1 | 100
Cc1ncsc1-c1ccc(CNC(=O)[C@@H]2C[C@@H](O)CN2C(=O)[C@@H](NC(=O)COCCOCCOCCOCCOCCNC(=O)C[C@@H]2N=C(c3ccc(Cl)cc3)c3c(sc(C)c3C)-n3c(C)nnc32)C(C)(C)C)cc1 [Example 7] | 0.1 to 1 | 93
Cc1ncsc1-c1ccc(CNC(=O)[C@@H]2C[C@@H](O)CN2C(=O)[C@@H](NC(=O)COCCOCCOCCCOCCOCCNC(=O)C[C@@H]2N=C(c3ccc(Cl)cc3)c3c(sc(C)c3C)-n3c(C)nnc32)C(C)(C)C)cc1 [Example 8] | 0.1 to 1 | 95.9
Cc1ncsc1-c1ccc(CNC(=O)[C@@H]2C[C@@H](O)CN2C(=O)[C@@H](NC(=O)COCCOCCOCCCCOCCOCCNC(=O)C[C@@H]2N=C(c3ccc(Cl)cc3)c3c(sc(C)c3C)-n3c(C)nnc32)C(C)(C)C)cc1 [Example 9] | 0.1 to 1 | 96.4
Cc1ncsc1-c1ccc(CNC(=O)[C@@H]2C[C@@H](O)CN2C(=O)[C@@H](NC(=O)COCCOCCOCCCOCCOCCN(C)C(=O)C[C@@H]2N=C(c3ccc(Cl)cc3)c3c(sc(C)c3C)-n3c(C)nnc32)C(C)(C)C)cc1 [Example 17, (2S,4R)-1-[(2S)-2-(18-{2-[(9S)-7-(4-chlorophenyl)-4,5,13-trimethyl-3-thia-1,8,11,12-tetraazatricyclo[8.3.0.0^2,^6]trideca-2(6),4,7,10,12-pentaen-9-yl]-N-methylacetamido}-3,6,9,13,16-pentaoxaoctadecanamido)-3,3-dimethylbutanoyl]-4-hydroxy-N-{[4-(4-methyl-1,3-thiazol-5-yl)phenyl]methyl}pyrrolidine-2-carboxamide] | 0.1 to 1 | 85
Cc1ncsc1-c1ccc(CNC(=O)[C@@H]2C[C@H](O)CN2C(=O)[C@@H](NC(=O)COCCCOCCCOc2ccc(NC(=O)C[C@@H]3N=C(c4ccc(Cl)cc4)c4c(sc(C)c4C)-n4c(C)nnc43)cc2)C(C)(C)C)cc1 [Example 18] | > 1 | 39

Second part, led by results:

DC50 [µM] | SMILES | Emax [%]
< 0.01 | Cc1ncsc1-c1ccc(CNC(=O)[C@@H]2C[C@@H](O)CN2C(=O)[C@@H](c2cc(OCCN3CC[C@@H](NC(=O)C[C@@H]4N=C(c5ccc(Cl)cc5)c5c(sc(C)c5C)-n5c(C)nnc54)C3)no2)C(C)C)cc1 (single isomer, unassigned) [Example 312] | 87.5
0.1 to 1 | Cc1ncsc1-c1ccc(CNC(=O)[C@@H]2C[C@@H](O)CN2C(=O)[C@H](C(C)C)N2Cc3ccccc3C2=O)c(OCCOCCOCCOCCNC(=O)C[C@@H]2N=C(c3ccc(Cl)cc3)c3c(sc(C)c3C)-n3c(C)nnc32)c1 [Example 1, (2S,4R)-N-{[2-(2-{2-[2-(2-{2-[(9S)-7-(4-chlorophenyl)-4,5,13-trimethyl-3-thia-1,8,11,12-tetraazatricyclo[8.3.0.0^2,^6]trideca-2(6),4,7,10,12-pentaen-9-yl]acetamido}ethoxy)ethoxy]ethoxy}ethoxy)-4-(4-methyl-1,3-thiazol-5-yl)phenyl]methyl}-4-hydroxy-1-[(2S)-3-methyl-2-(1-oxo-2,3-dihydro-1H-isoindol-2-yl)butanoyl]pyrrolidine-2-carboxamide] | 100
0.01 to 0.1 | Cc1ncsc1-c1ccc(CNC(=O)[C@@H]2C[C@@H](O)CN2C(=O)[C@@H](NC(=O)COCCOCCOc2ccc(NC(=O)C[C@@H]3N=C(c4ccc(Cl)cc4)c4c(sc(C)c4C)-n4c(C)nnc43)cc2)C(C)(C)C)cc1 [Example 10, (2S,4R)-1-[(2S)-2-(2-{2-[2-(4-{2-[(9S)-7-(4-chlorophenyl)-4,5,13-trimethyl-3-thia-1,8,11,12-tetraazatricyclo[8.3.0.0^2,^6]trideca-2(6),4,7,10,12-pentaen-9-yl]acetamido}phenoxy)ethoxy]ethoxy}acetamido)-3,3-dimethylbutanoyl]-4-hydroxy-N-{[4-(4-methyl-1,3-thiazol-5-yl)phenyl]methyl}pyrrolidine-2-carboxamide] | 100
0.01 to 0.1 | Cc1ncsc1-c1ccc(CNC(=O)[C@@H]2C[C@@H](O)CN2C(=O)[C@@H](NC(=O)COCCOCCOCCOc2ccc(NC(=O)C[C@@H]3N=C(c4ccc(Cl)cc4)c4c(sc(C)c4C)-n4c(C)nnc43)cc2)C(C)(C)C)cc1 [Example 11] | 99.5
0.01 to 0.1 | Cc1ncsc1-c1ccc(CNC(=O)[C@@H]2C[C@@H](O)CN2C(=O)[C@@H](NC(=O)COCCOCCOCCOCCOc2ccc(NC(=O)C[C@@H]3N=C(c4ccc(Cl)cc4)c4c(sc(C)c4C)-n4c(C)nnc43)cc2)C(C)(C)C)cc1 [Example 12] | 100
0.01 to 0.1 | Cc1ncsc1-c1ccc(CNC(=O)[C@@H]2C[C@@H](O)CN2C(=O)[C@@H](NC(=O)COCCCOCCCCOCCCOc2ccc(NC(=O)C[C@@H]3N=C(c4ccc(Cl)cc4)c4c(sc(C)c4C)-n4c(C)nnc43)cc2)C(C)(C)C)cc1 [Example 13] | 100
0.01 to 0.1 | Cc1ncsc1-c1ccc(CNC(=O)[C@@H]2C[C@@H](O)CN2C(=O)[C@@H](NC(=O)COCCOCCOCCCCOc2ccc(NC(=O)C[C@@H]3N=C(c4ccc(Cl)cc4)c4c(sc(C)c4C)-n4c(C)nnc43)cc2)C(C)(C)C)cc1 [Example 14] | 100
0.01 to 0.1 | Cc1ncsc1-c1ccc(CNC(=O)[C@@H]2C[C@@H](O)CN2C(=O)[C@@H](NC(=O)COCCCCOCCCOc2ccc(NC(=O)C[C@@H]3N=C(c4ccc(Cl)cc4)c4c(sc(C)c4C)-n4c(C)nnc43)cc2)C(C)(C)C)cc1 [Example 15] | 100
0.01 to 0.1 | Cc1ncsc1-c1ccc(CNC(=O)[C@@H]2C[C@@H](O)CN2C(=O)[C@@H](NC(=O)COCCCOCCCOc2ccc(NC(=O)C[C@@H]3N=C(c4ccc(Cl)cc4)c4c(sc(C)c4C)-n4c(C)nnc43)cc2)C(C)(C)C)cc1 [Example 16] | 98.6
0.01 to 0.1 | Cc1ncsc1-c1ccc(CNC(=O)[C@@H]2C[C@@H](O)CN2C(=O)[C@@H](NC(=O)COCCCOCCCOc2ccc(NC(=O)C[C@@H]3N=C(c4ccc(Cl)cc4)c4c(sc(C)c4C)-n4c(C)nnc43)cc2F)C(C)(C)C)cc1 [Example 19] | 92
0.01 to 0.1 | Cc1ncsc1-c1ccc(CNC(=O)[C@@H]2C[C@@H](O)CN2C(=O)[C@@H](NC(=O)COCCCOCCCOc2ccc(NC(=O)C[C@@H]3N=C(c4ccc(Cl)cc4)c4c(sc(C)c4C)-n4c(C)nnc43)c(F)c2)C(C)(C)C)cc1 [Example 20] | 94
